The source of these data is patent US20020106348A1, “Cancer therapeutics involving the administration of 2-methoxyestradiol and an agent that increases intracellular superoxide anion” (priority 2000, published 2002).

Counter-ions that a name gives are not always drawn. Like-named read-outs stand apart in the source and are kept apart here.

The subject of data set [1] is CuZnSOD. As to the kind of experiment: Inhibition of CuZnSOD by estrogen derivatives. The class given is biochemical. The following applies: FIG. 20.
Data set [2] has as its system HL-60. Briefly: Apoptosis / nucleosomal DNA fragmentation in HL-60 cells. The following applies: for DNA fragmentation (apoptosis) in HL-60 cells: estrogen derivatives, FIG. 20; for effect on 2-ME-induced apoptosis: HL-60, 1 μM 2-ME plus antioxidant. Type of data set: cell-based, human.
The conditions of data set [3]: cited from earlier work; for elimination half-life: intravenous.
Data set [4] concerns CLL cells. As to the kind of experiment: Cellular O2^- by hydroethidine flow cytometry, CLL cells. The class given is cell-based, human. The following applies: addition of NAC to 2-ME-treated CLL cells.
Protocol: The method using hydroethidine to detect O2^− in tissue sections was adapted for quantitation of intracellular O2^− by flow cytometry analysis. This assay is based on the unique chemical properties of hydroethidine, a weak blue fluorescent dye which is selectively converted by O2^− to ethidium with a bright red fluorescence. The control and drug-treated cells (1.5×10^6/sample) were incubated with hydroethidine (20 ng/ml) for 60 min, washed twice with 3 ml PBS, resuspended in 2 ml PBS, and then analyzed within 1 h by flow cytometry, using the red laser channel.
Data set [5] has as its system CLL cells. The following applies: for protection from toxic effect of 2-ME: antioxidant added to 2-ME-treated CLL cells.
Data set [6] relates to leukemia cells from a CML (chronic myelogenous leukemia) patient in relapsed blast crisis. As to the kind of experiment: Induction of apoptosis in primary leukemia cells from a CML patient. The class given is cell-based, human. The following applies: in vitro.
Data set [7] has as its system HL-60 cells. As to the kind of experiment: Cellular O2^- by flow cytometry, HL-60 cells. The class given is cell-based, human. The following applies: 0.25 μM.
The target in data set [8] is NADH:ubiquinone oxidoreductase; phorbol ester-induced ornithine decarboxylase (ODC). The following applies: Fang et al, 1998; read-out: IC50 values, NADH:ubiquinone oxidoreductase inhibition / blocking ODC induction; cited from earlier work.
The subject of data set [9] is c-myc protein. Briefly: c-myc protein expression in B CLL cells. The class given is cell-based, human. The following applies: Rituxan alone.

As for `C[C@]12CC[C@@H]3c4cc(O)c(O)cc4CC[C@H]3[C@@H]1CC[C@@H]2O` [2-hydroxyestradiol], in data set [1], the “inhibition of SOD activity” value is “substantially inhibited SOD activity”. The “DNA fragmentation (apoptosis) in HL-60 cells” value in data set [2] is listed as “induced DNA fragmentation”.
Taken in the same sequence, the figures for `COc1cc2c(cc1O)CC[C@@H]1[C@@H]2CC[C@]2(C)C(=O)CC[C@@H]12` [2-methoxyestrone] were “substantially inhibited SOD activity” and “induced DNA fragmentation”.
Taken in the same sequence, the figures for `C[C@]12CC[C@@H]3c4ccc(O)cc4CC[C@H]3[C@@H]1CC[C@@H]2O` [17β-estradiol] were “minimal activity against SOD” and “little DNA fragmentation”.
As to `COc1cccc2c1C(=O)c1c(O)c3c(c(O)c1C2=O)C[C@@](O)(C(C)=O)C[C@@H]3O[C@H]1C[C@H](N)[C@H](O)[C@H](C)O1` [Daunorubicin, 5,12-Naphthacenedione, (8S-cis)-8-acetyl-10-[(3-amino-2,3,6-trideoxy-α-L-lyxo-hexanopyranosyl)oxy]-7,8,9,10-tetrahydro-6,8,11-trihydroxy-10-methoxy-, hydrochloride], in data set [3] (in vivo), the “secreted into the bile” value is recorded as around 40%. The elimination half-life result in [3] was “about 19 hr”.
For the molecule `COc1cccc2c1C(=O)c1c(O)c3c(c(O)c1C2=O)C[C@@](O)(C(=O)CO)C[C@@H]3O[C@H]1C[C@H](N)[C@H](O)[C@H](C)O1` [Doxorubicin, 5,12-Naphthacenedione, (8s-cis)-10-[(3-amino-2,3,6-trideoxy-α-L-lyxo-hexopyranosyl)oxy]-7,8,9,10-tetrahydro-6,8,1-trihydroxy-8-(hydroxyacetyl)-1-methoxy-hydrochloride], in [3], the elimination half-life entry is “about 30 hr”.
Consider `CC(=O)N[C@@H](CS)C(=O)O` [N-acetylcysteine, reference compound], for which the “cellular O2^− in 2-ME-treated cells” value in data set [4] is recorded as “reduced the accumulation of cellular O2^−”. Also, the results for the “protection from toxic effect of 2-ME” value in [5] and in data set [5] (listed as NAC) were “protective effect” and “protected the cells from the toxic effect of 2-ME”, respectively. Also, in data set [2], the “effect on 2-ME-induced apoptosis” value is 2-ME-induced apoptosis was significantly reduced.
As for `Nc1c(Br)cc(Br)cc1CN[C@H]1CC[C@H](O)CC1` [ambroxol], the “effect on 2-ME-induced apoptosis” value in [2] is 2-ME-induced apoptosis was significantly reduced.
On to `Nc1ccn([C@@H]2O[C@H](CO)[C@@H](O)[C@@H]2O)c(=O)n1` [ara-C, reference compound], for which the “apoptosis in primary CML cells” value in data set [6] is listed as “resistant”.
For the molecule `COc1cccc2c1C(=O)c1c(O)c3c(c(O)c1C2=O)C[C@@](O)([C@H](C)O)C[C@@H]3O[C@H]1C[C@H](N)[C@H](O)[C@H](C)O1` [daunorubicinol], in [3], the elimination half-life entry is “about 27 hr”.
Consider `C=C(C)[C@H]1Cc2c(ccc3c2O[C@@H]2COc4cc(OC)c(OC)cc4[C@@H]2C3=O)O1` [rotenone, reference compound], for which the “cellular O2^− content” value in data set [7] is on record as “increase of cellular O2^−”. Also, the IC50 in data set [8] is 0.8 to 4 nM.
In the case of “Rituxan: antibody specific for CD20 antigen on B lymphocyte”, the c-myc protein expression result in data set [9] is on record as “increased expression of c-myc protein”. Also, the “killing of CLL cells” value in data set [5] (Rituxan alone, various concentrations) is listed as “did not result in any significant killing”. Moreover, the “enhancement of 2-ME activity” value in [5] (cells sensitive or resistant to 2-ME) is “did not significantly enhance the activity of 2-ME”.
For the molecule Sodium Arsenate [reference compound], the figures for the “sensitivity to single agent” value in [5] (2-ME-resistant CLL cells) and in data set [5] (CLL cells of the two sensitive patients) were “insensitive to either drug alone” and “relatively sensitive”, respectively.
